# Experimental data as given in patent US9663764B2, “Generation of cardiomyocytes from human pluripotent stem cells” (Wisconsin Alumni Research Foundation, priority 2011, dated 2017).
# Experiments:
# Format in all cases: cell-based, human
# H9 hESCs = assay: Activin A/BMP4 directed cardiac differentiation with GSK3 inhibitor pretreatment, cTnT flow cytometry; details: GSK3 inhibitor (1 μM) 3 days prior to Activin A and BMP4; day 15; average
# Description: Cardiac directed differentiation using Activin A and BMP4: hPS cells maintained on Matrigel® in mTeSR1 were dissociated into single cells with Accutase (Invitrogen) at 37° C. for 5 min and then seeded onto a Matrigel®-coated cell culture dish at 100,000 cell/cm^2 in mTeSR1 supplemented with 5 μM ROCK inhibitor (Y-27632, Stemgent) (day −5). Cells were cultured in mTeSR1, changed daily. At day 0, cells were treated with 100 ng/ml Activin A (R&D) in RPMI/B27-insulin. After 24 hr, the medium was changed to RPMI/B27-insulin supplemented with 5 ng/ml BMP4 (R&D) for another 4 days. At day 5, the medium was changed with RPMI/B27-insulin. At day 7 the cells were transferred to RPMI/B27, and medim changed every 3 days. When using GSK3 inhibitors to stimulate differentiation, cells were cultured in mTeSR1 containing BIO or CHIR99021 from day −3 to day 0.
# (§1) Flow Cytometry: Cells were dissociated into single cells and then fixed with 1% paraformaldehyde for 20 min at room temperature and stained with primary and secondary antibodies in PBS plus 0.1% Triton X-100 and 0.5% BSA. For the cell proliferation assay, a 17-hour pulse of BrdU was performed to identify dividing cardiomyocytes (Zhang et al., Circ. Res. 104, e30-41 (2009)). Data were collected on a FACSCaliber flow cytometer (Beckton Dickinson) and analyzed using FlowJo.
# Undifferentiated H9 hESCs were cultured in the presence of 0-8 μM CH for three days prior to EB formation. EBs were cultured in suspension for 4 days before transferring to 0.1% gelatin coated plates. […] The inventors also applied the GSK3 inhibitors CH and BIO to undifferentiated H9 hESCs three days prior to directed differentiation to cardiomyocytes via Activin A and BMP4.
# 19-9-11 iPSCs = assay: Cardiac directed differentiation via small molecules on Matrigel, cTnT/MF20 flow cytometry; details: 12 μM CH treatment alone, after 15 days
# Description: cardiac directed differentiation via small molecules: Cells were dissociated and plated as described in the Activin/BMP4 protocol. When hPS cells maintained on Matrigel® or Synthemax plates achieved confluence, cells were treated with CH in RPMI/B27-insulin for 24 hr (day 0 to day 1). The medium was changed to RPMI/B27-insulin, followed by 2 μg/ml dox treatment at different times between day 1 and day 5 for transgenic cell lines. For genetically unmodified lines, 5 μM IWP2 (Tocris) or IWP4 (Stemgent) was added at day 3 and removed during the day 5 medium change. Cells were maintained in the RPMI/B27 starting from day 7, with the medium changed every 3 days.
# as §1
# While shRNA inhibition of β-catenin provides specific and facile temporal regulation of canonical Wnt signaling, this method requires genetic modification of the hPS cell line which limits its potential clinical utility. The inventors next used the mechanistic insight these modified lines provided regarding the sufficiency of canonical Wnt signaling in cardiomyogenesis to develop a completely defined, growth factor free method of efficiently generating cardiomyocytes from unmodified hPS cell lines using small molecules. First, 19-9-11 iPSCs were maintained in mTeSR1 on Matrigel® for five days, and then the medium was switched to RPMI/B27-insulin containing 12 μM CH. IWP4 and IWP2, which prevent palmitylation of Wnt proteins by porcupine thereby blocking Wnt protein secretion and activity (Chen et al., Nat. Chem. Biol. 5:100-107 (2009)), were used to inhibit Wnt signaling. […] Similar to results obtained with the 19-9-11 ishcat-1 cell line, CH treatment of 19-9-11 cells alone only generated 16% cTNT+ or MF20+ cells after 15 days, while adding 5 μM IWP4 or IWP2 at day 3 increased this to 87% cTNT+ or MF20+ cells. […] In order to achieve fully defined culture conditions, Matrigel® was replaced with a defined peptide acrylate surface (Synthemax) during both hPS cell expansion and differentiation. […] Thus, optimization of canonical WNT signaling via stage-specific addition of small molecule agonists and antagonists produces high yields of functional cardiomyocytes in a completely defined, growth factor free culture system.
# [1] = tested on: TCF/LEF promoter activity in H9-7TGP cells; assay: 7TGP TCF/LEF promoter-reporter (GFP) assay after CH treatment
# Text: In order to probe the activation of canonical Wnt/β-catenin signaling during hPS cell specification to cardiomyocytes, the inventors generated a series of promoter-reporter cell lines in H1 and H9 hESC, and 19-9-11 human iPSC lines. These reporter lines, integrated with a lentiviral 7TGP vector, express GFP under control of a consensus TCF/LEF binding sequence promoter which reports β-catenin activation (FIG. 2A) (Fuerer and Nusse, PLoS One 5:e9370 (2010)). […] Approximately 50% of H9-7TGP cells expressed GFP at 4 days post-addition of 15 μM CH.
# [2] = tested on: 19-9-11 shcat-2 and scramble lines; assay: Flow cytometry of Oct4 and brachyury in CH-treated 19-9-11 shcat-2 and scramble lines; details: for cells expressing Oct4: 4 days of CH (12 μM) in mTeSR1
# Description: Flow Cytometry: Cells were dissociated into single cells and then fixed with 1% paraformaldehyde for 20 min at room temperature and stained with primary and secondary antibodies in PBS plus 0.1% Triton X-100 and 0.5% BSA. For the cell proliferation assay, a 17-hour pulse of BrdU was performed to identify dividing cardiomyocytes (Zhang et al., Circ. Res. 104, e30-41 (2009)). Data were collected on a FACSCaliber flow cytometer (Beckton Dickinson) and analyzed using FlowJo. To test whether induction of cardiomyocyte differentiation by GSK3 inhibitors requires β-catenin, the inventors treated the shcat-2 and scramble 19-9-11 lines with CH in mTeSR1 medium. While the shcat-2 line maintained an undifferentiated morphology, the scramble line appeared to undergo differentiation (FIG. 2E), similar to non-transduced lines treated with CH (FIGS. 1B and 2B). Induction of differentiation following CH treatment in the scramble control was further indicated by diminished SOX2 and NANOG expression at day 4 (FIG. 3C). […] After 4 days of CH treatment in mTeSR1, the percentage of cells expressing Oct4 decreased to 61% in the scramble line, while 98% of the shcat-2 cells expressed Oct4 (FIG. 3D). […] To better understand early mesoderm induction via GSK3 inhibition, the inventors analyzed expression of the early mesoderm gene T in scramble and shcat-2 19-9-11 lines. As CH concentration increased, the ratio of T expression in scramble to the shcat-2 line increased (FIG. 3E). Less than 2% of shcat-2 cells expressed brachyury upon exposure to different concentrations of CH treatment for 4 days.
structure (smiles),measurement,setting,value
Cc1c[nH]c(-c2cnc(NCCNc3ccc(C#N)cn3)nc2-c2ccc(Cl)cc2Cl)n1 [CH],cTNT-labeled cells,H9 hESCs,50%
same,cTNT+ or MF20+ cells,19-9-11 iPSCs,16%
same,H9-7TGP cells expressing GFP,"[1]; 15 μM CH, 4 days post-addition",Approximately 50%
same,TCF/LEF promoter activity,"[1]; H9-7TGP reporter line, CH in mTeSR1 for 4 days",activated TCF/LEF promoter activity in a CH concentration-dependent manner
same,brachyury+ cells,"[2]; scramble line, 15 μM CH for 4 days",76%
same,cells expressing Oct4,[2]; scramble line,61%
same,cells expressing Oct4,[2]; shcat-2 cells,98%
same,cells expressing brachyury,"[2]; shcat-2 cells, different concentrations of CH for 4 days",Less than 2%
